Source: patent US11844841B2, “Dosing regimens and related compositions and methods” (Apellis Pharmaceuticals, Inc., priority 2017, dated 2023)

How the values were obtained:
[1] = Inhalation study, repeated dosing; details: in vivo, inhaled or intranasal, 25 mg/kg/d; 7 day repeated dose study in the dog
Experimental: (§1) Inhalation studies of single dose or repeated dosing were conducted in dog and cynomolgus monkey. […] These doses were 25 mg/kg/d in a 7 day repeated dose study in the dog, 80 mg/kg in a single dose study in the monkey, and 30 mg/kg/day in a 14 day repeated dose in the monkey.

[2] = Inhalation studies, single dose and repeated dosing; type: in vivo, cynomolgus monkey
Experimental: as §1

[3] = Phase 1 single and multiple ascending dose trial of inhaled (nebulized) CA28 in healthy volunteers; type: in vivo, human; details: for adverse event: one subject
Experimental: In the single ascending dose part of the trial, 16 subjects were enrolled in four cohorts of four subjects each.
Four subjects were enrolled in the first cohort of the multiple ascending dose part of the trial. These subjects were to receive 14 consecutive days of treatment with a 60 mg/day dose of the drug. […] The trial was paused and subsequently resumed, with subjects receiving 30 mg/day. […] The trial was then terminated.

PNH RBCs = assay: Modified Ham's assay, comparison with Soliris (Example 19); type: cell-based, human; details: CA28-2GS-BF 50 ug/ml
Experimental: Flow cytometry was performed after antibody staining using antibodies against CD59 and C3d. In this figure, quadrant 1 (Q1) and quadrant 3 (Q3) represent Type III cells. Quadrant 2 (Q2) and quadrant 4 (Q4) represent Types I and II cells. Q1 and Q2 represent cells with a significant and abnormally high amount of C3 activation product (e.g., C3d) deposition. Q3 and Q4 represent cells without significant C3d deposition or somewhat elevated level (right portion of Q4) but less so than Q2 cells.

[4] = tested on: complement activation via the classical pathway; assay: Classical complement inhibition assay (C3b deposition ELISA); type: biochemical, human
Experimental: Inhibitory activity of the synthesized compounds was assessed by measuring the effect of the compounds on complement activation via the classical pathway using a standard complement inhibition assay. The protocol measures C3b deposition in an ELISA format. C3b deposition monitored using this method is generated through complement activated by the classical pathway. Briefly, 96-well plates are coated with BSA. Human plasma, chicken ovalbumin (OVA), polyclonal anti-OVA antibodies and compound being tested (referred to as “drug”) are added and incubated, followed by addition of Anti-human C3 HRP-conjugated antibody. After an additional incubation, substrate is added and signal detected. Details of the protocol are as follows:
Protocol for Classical Complement Inhibition Assay
• Ninety-six well plate (polystyrene plate, Thermo Scientific, 9205) • Chicken OVA (Sigma A5503-5G) • Rabbit anti-chicken OVA (Abcam ab1221) • Blocking buffer (Startingblock buffer, Thermo Scientific 37538) • Veronal Buffer (5× concentration, Lonza 12-624E) • Human plasma (collected with Lepirudin at 50 ug/ml final concentration) • Goat anti-human C3 HRP-conjugated Ab (MP Biomedicals, 55237) • Tween-20 Wash Buffer (0.05% Tween 20-PBS buffer) • TMB (Peroxidase substrate, BD 555214)—1:1 mixture of BD 51-2607KC and 51-2606KC. • 1M H2SO4 Protocol: • 1. […]
Data was analyzed using GraphPad Prism5 software. […]

[5] = tested on: RBCs from a patient with PNH; assay: Modified Ham's test with flow cytometry for CD59 and C3d (Example 18); type: cell-based, human
Experimental: A modified Ham's test was performed to assess the ability of compstatin analogs to protect PNH RBCs from complement-mediated lysis. […] Exposure to heat inactivated human serum was used as a control representing no significant complement-mediated lysis as complement is inactivated by heat. Exposure to acidified human serum and magnesium (Mg^2+) in the absence of complement inhibitors (pane labeled Mg^2+) was used as a control representing maximum lysis.
Following incubation, cells were stained with antibodies to CD59 and C3d. CD59 level permitted the classification of the PNH RBCs as Type I, Type II, or Type III. Staining for C3d, a product of C3 activation and cleavage was used as a marker of C3 and C3 activation product deposition (loading). Flow cytometric analysis was performed to assess CD59 and C3d on RBC surfaces and to quantify the percentages of Type I, Type II, and Type III cells present in various samples.
Type I cells (shown in orange in FIG. 12) have normal levels of CD59. Type III cells (shown in blue in FIG. 12) have essentially no detectable CD59. […] Type II cells (shown in purple in FIG. 12) have reduced levels of CD59 as compared with normal or Type I cells and have an intermediate sensitivity to complement-mediated lysis. […] Type II cells may eventually lyse in the presence of activated complement but can accumulate a considerable amount of C3 activation products such as C3d before they do so. Reduction in or absence of lysis may be evidenced by increased levels of C3 or C3 activation products on Type II cells, as is evident by comparing the level of C3d on Type II cells in the no lysis panel with the level of C3d on Type II cells in the max. lysis panel in both FIGS. 12(A) and 12(B). […] A shift in the relative percentages of Type I, II, and III cells from the percentages present in the max. lysis control panels (Mg^2+) towards the percentages present in the no lysis control panels (heat inactivated serum) is indicative of protection against complement-mediated lysis. The column labeled % C′3 in Table 11 refers to the percentage of cells deemed “positive” for presence of C3 and C3 activation products (“C3 loading”).

Q: With CC[C@H](C)[C@H](NC(C)=O)C(=O)N[C@H]1CSSC[C@@H](C(=O)N[C@H](C(N)=O)[C@@H](C)O)NC(=O)[C@H](CCCNC(=N)N)NC(=O)[C@H](Cc2cnc[nH]2)NC(=O)[C@H](C)NC(=O)CNC(=O)[C@H](Cc2c[nH]c3ccccc23)NC(=O)[C@H](CC(=O)O)NC(=O)[C@H](CCC(N)=O)NC(=O)[C@H](Cc2cn(C)c3ccccc23)NC(=O)[C@H](C(C)C)NC1=O [CA28] as the compound, how does the NOAEL at 168 h [1] read?
A: Its NOAEL at 168 h is 25 mg/kg/day.

Q: And the “highest inhaled dose tested, no drug-related findings” value ([2]; 14 day repeated dose in the monkey)?
A: The value was 30 mg/kg/day.

Q: And the NOAEL ([2]; cynomolgus monkey, in vivo, inhaled or intranasal, 80 mg/kg, single dose study in the monkey)?
A: Its NOAEL is 80 mg/kg.

Q: And the adverse event ([3]; 30 mg/day inhaled, after 10 days of treatment)?
A: Its adverse event is “signs and symptoms consistent with a potential bacterial infection”.

Q: And the adverse event ([3]; 60 mg/day inhaled, after nine days of treatment)?
A: Its adverse event is “signs and symptoms consistent with a potential bacterial infection”.

Q: What about the safety and tolerability ([3]; single inhaled doses 20, 60, 150 or 350 mg) of the same compound?
A: Its safety and tolerability is “well tolerated and no serious adverse events were reported”.

Q: Which “deposition of C3d on PNH RBCs” value (PNH RBCs) does the source give for “CA28-2GS-BF: Bifunctional linear 40 kD PEG of the GS (glutaryl NHS ester) type coupled to two CA28-AEEAc-Lys moieties” here?
A: Its value is “essentially no deposition of C3d”.

Q: And the “complement inhibiting activity, comparison in words” value [4]?
A: Its value is “virtually identical”.

Q: And the “Type I % C′3” value ([5]; compound at 20 micrograms/ml)?
A: Its value is 2.18%.

Q: And the “Type II % C′3” value ([5]; compound at 20 micrograms/ml)?
A: The value was 12.28%.

Q: What about the “Type III % C′3” value ([5]; compound at 20 micrograms/ml) of the same compound?
A: The value was 0.99%.

Q: And the “Type I % C′3” value ([5]; compound at 40 micrograms/ml)?
A: Its value is 2.84%.

Q: What about the “Type III % C′3” value ([5]; compound at 40 micrograms/ml) of the same compound?
A: The value was 1.21%.

Q: And the “Type I % C′3” value ([5]; compound at 50 micrograms/ml)?
A: The value was 2.26%.

Q: And the “Type III % C′3” value ([5]; compound at 50 micrograms/ml)?
A: Its value is 1.29%.

Q: And the “Type I % C′3” value ([5]; compound at 60 micrograms/ml)?
A: The value was 2.05%.

Q: And the “Type II % C′3” value ([5]; compound at 60 micrograms/ml)?
A: Its value is 13.04%.

Q: What about the “Type III % C′3” value ([5]; compound at 60 micrograms/ml) of the same compound?
A: The value was 1.44%.

Q: What about the “Type I % C′3” value ([5]; compound at 100 micrograms/ml) of the same compound?
A: The value was 0.07%.

Q: What about the “Type II % C′3” value ([5]; compound at 100 micrograms/ml) of the same compound?
A: Its value is 0.88%.

Q: And the “Type III % C′3” value ([5]; compound at 100 micrograms/ml)?
A: Its value is 0.11%.

Q: And the “Type I % C′3” value ([5]; compound at 200 micrograms/ml)?
A: The value was 0.02%.

Q: What about the “Type II % C′3” value ([5]; compound at 200 micrograms/ml) of the same compound?
A: Its value is 0.26%.

Q: What about the “Type III % C′3” value ([5]; compound at 200 micrograms/ml) of the same compound?
A: Its value is 0.02%.

Q: What about the “Type I % C′3” value ([5]; compound at 500 micrograms/ml) of the same compound?
A: The value was 0.04%.

Q: What about the “Type II % C′3” value ([5]; compound at 500 micrograms/ml) of the same compound?
A: The value was 0.3%.

Q: And the “Type III % C′3” value ([5]; compound at 500 micrograms/ml)?
A: The value was 0.05%.

Q: What about the “protection of PNH RBCs from complement-mediated lysis” value ([5]; in the presence of 100 ug/ml or more compstatin analog) of the same compound?
A: Its value is “complete protection from complement-mediated lysis”.
